For the test, the system named is laccase (NS51003, Novozymes A/S, Denmark). The test can be described thus: Delignification of a softwood Kraft pulp using a laccase-mediator system (change in Kappa number, TAPPI T236 cm-85). It counts as biochemical. The note with it: for Kappa # (Mediator): pH 5.5. As for the experimental part: Delignification of a Softwood Kraft Pulp Using a Laccase-Mediator System in the Presence of a Mediator
In the following example, a softwood Kraft pulp was delignified using a laccase-mediator system. The Kraft process is well known to those skilled in the art and is described, for example, by Swen A. Rydholm in “Pulping Process”, Interscience Publishers, New York, N.Y. (1965), p. 576.
A softwood Kraft pulp, Kappa number 31.0, was treated with a laccase (NS51003, Novozymes A/S, Denmark) under the following conditions:
The dried pulp was added to 80 ml of 50 mM phosphate, pH 5.5, and disintegrated in a blender. The pulp was then transferred to a 500 ml conical flask, and the blender was washed with 20 ml of the same buffer. The washed buffer and the pulp were combined. The mediator was added at 1-4% (w/w, based on the dry pulp) (Dosage) followed by the addition of the laccase. The pH of the pulp mixture was adjusted to 5.5 if needed. The flask was covered with an aluminum foil with holes punched through and incubated at 50° C. for 16 hrs on a rotary shaker at 200 rpm.
After the enzymatic treatment, the pulp mixture was filtered through a Buchner funnel and the pulp was washed with water. The pulp from the control experiment was treated at the same pH and temperature as described above in the absence of mediators.
The washed pulp was then treated with an alkaline solution under the following conditions:
The filtered pulp was repulped in the alkaline solution and incubated at 70° C. for 3 hrs. The pH of the pulp mixture should be between 11.7-12.00 during the entire treatment. After the treatment, the pulp mixture was filtered through a Buchner funnel, and the pulp was washed with water extensively, and then dried in a hood overnight.
The delignification of the pulp was measured as the change in Kappa number according to TAPPI method T236 cm−85. Briefly, a known mass of paper pulp (containing lignin) was reacted with an excess of potassium permanganate in acid solution for a specified period of time to oxidize the lignin. After the reaction, the residual permanganate was determined by titration. The Kappa number was defined as the volume (ml) of 0.1N potassium permanganate consumed by 1 g of moisture-free pulp in 0.5N sulfuric acid after a ten minute reaction time at 25° C. under conditions such that one-half of the permanganate remained unreacted. A linear relationship with the lignin content of the pulp and the measurement of the Kappa number had already been done on samples as low as 300 mg of pulp.

SMILES strings stand for the structures.

The values below come from US20030089472A1, “Laccase activity enhancers for pulp bleaching” (priority 2001, published 2003).

Turning to `Cc1ccc2nc(-c3ccc(N=NNc4ccc(-c5nc6ccc(C)c(S(=O)(=O)[O-])c6s5)cc4)cc3)sc2c1S(=O)(=O)[O-].[Na+].[Na+]` [Thiazol Yellow G], the “Δ Kappa #” value is given as −3.0 and the “Kappa # (Mediator)” value came out at 21.9.
With `C(=NCc1ccccc1)c1ccccc1` [N-Benzylidene-benzylamine], the “Δ Kappa #” value is listed as −0.3 and the “Kappa # (Mediator)” value stood at 28.3.
For the compound `CN(C)C(=S)[S-].O.[Na+]` [Sodium dimethyldithio carbonate hydrate], the “Δ Kappa #” value was −0.7 and the “Kappa # (Mediator)” value came to 28.6.
For `Oc1ccccc1` [Phenol] the same measures were −1.1 and 25.0.
